biological target: CDK2/Cyclin E1 (Homo sapiens (Human), UniProt P24941); test: CDK2/Cyclin E1 HTRF enzyme activity assay; type: biochemical; settings: 1 mM ATP
Protocol: Example A. CDK2/Cyclin E1 HTRF Enzyme Activity Assay
CDK2/Cyclin E1 enzyme activity assays utilized full-length human CDK2 co-expressed as N-terminal GST-tagged protein with FLAG-Cyclin E1 in a baculovirus expression system (Carna Product Number 04-165). Assays were conducted in white 384-well polystyrene plates in a final reaction volume of 8 μL. CDK2/Cyclin E1 (0.25 nM) was incubated with compounds (40 nL serially diluted in DMSO) in the presence of ATP (50 μM or 1 mM) and 50 nM ULight™-labeled eIF4E-binding protein 1 (THR37/46) peptide (PerkinElmer) in assay buffer (containing 50 mM HEPES pH 7.5, 1 mM EGTA, 10 mM MgCl2, 2 mM DTT, 0.05 mg/mL BSA, and 0.01% Tween 20) for 60 minutes at room temperature. The reactions were stopped by the addition of EDTA and Europium-labeled anti-phospho-4E-BP1 antibody (PerkinElmer), for a final concentration of 15 mM and 1.5 nM, respectively. HTRF signals were read after 1 hour at room temperature on a PHERAstar FS plate reader (BMG Labtech). Data were analyzed with IDBS XLFit and GraphPad Prism 5.0 software using a three or four parameter dose response curve to determine IC50 for each compound.

**Q.** For Cn1cc(S(=O)(=O)N2CCC(Nc3ncc4c(n3)N([C@@H]3CCC[C@@H](O)C3)C(=O)C43CC3)CC2)cn1 [Example 12, 7′-((1R,3R)-3-hydroxycyclohexyl)-2′-((1-((1-methyl-1H-pyrazol-4-yl)sulfonyl)piperidin-4-yl)amino)spiro[cyclopropane-1,5′-pyrrolo[2,3-d]pyrimidin]-6′(7′H)-one], which IC50 is on record?
**A.** The IC50 was ≤ 50 nM.

**Q.** Cn1cc(S(=O)(=O)N2CCC(Nc3ncc4c(n3)N(C3CCCC3)C(=O)C43CC3)CC2)cn1 [Example 7, 7′-Cyclopentyl-2′-((1-((1-methyl-1H-pyrazol-4-yl)sulfonyl)piperidin-4-yl)amino)spiro[cyclopropane-1,5′-pyrrolo[2,3-d]pyrimidin]-6′(7′H)-one] was tested. Which IC50 did it give?
**A.** Its IC50 is ≤ 50 nM.

**Q.** How did the IC50 turn out when C[C@@H](C1CC1)N1C(=O)C2(CC2)c2cnc(NC3CCN(S(=O)(=O)c4ccc(=O)[nH]c4)CC3)nc21 [Example 15, (S)-7′-(1-cyclopropylethyl)-2′-((1-((6-oxo-1,6-dihydropyridin-3-yl)sulfonyl)piperidin-4-yl)amino)spiro[cyclopropane-1,5′-pyrrolo[2,3-d]pyrimidin]-6′(7′H)-one] was run?
**A.** Its IC50 is ≤ 50 nM.

**Q.** How did the IC50 turn out when O=C1N([C@@H]2CCC[C@@H](O)C2)c2nc(NC3CCN(S(=O)(=O)c4cccc(N5CCC5)n4)CC3)ncc2C12CC2 [Example 13, 2′-((1-((6-(azetidin-1-yl)pyridin-2-yl)sulfonyl)piperidin-4-yl)amino)-7′-((1R,3R)-3-hydroxycyclohexyl)spiro[cyclopropane-1,5′-pyrrolo[2,3-d]pyrimidin]-6′(7′H)-one] was run?
**A.** The IC50 was ≤ 50 nM.

**Q.** For O=C1N(c2cc3c(cc2Cl)CNCC3)c2nc(NC3CCN(S(=O)(=O)c4ncc[nH]4)CC3)ncc2C12CC2 [Example 18, 2′-((1-((1H-imidazol-2-yl)sulfonyl)piperidin-4-yl)amino)-7′-(7-chloro-1,2,3,4-tetrahydroisoquinolin-6-yl)spiro[cyclopropane-1,5′-pyrrolo[2,3-d]pyrimidin]-6′(7′H)-one], which IC50 is on record?
**A.** The IC50 was ≤ 50 nM.

**Q.** Which IC50 does the source give for CC1CCCC1N1C(=O)C2(CC2)c2cnc(NC3CCN(S(C)(=O)=O)CC3)nc21 (stereo not shown) [Example 8, 7′-(2-Methylcyclopentyl)-2′-((1-(methylsulfonyl)piperidin-4-yl)amino)spiro[cyclopropane-1,5′-pyrrolo[2,3-d]pyrimidin]-6′(7′H)-one] here?
**A.** Its IC50 is ≤ 50 nM.

**Q.** Which IC50 does the source give for CCN1CC(n2cc(S(=O)(=O)N3CCC(Nc4ncc5c(n4)N([C@@H](C)C4CC4)C(=O)C54CC4)CC3)cn2)C1 [Example 16, (S)-7′-(1-cyclopropylethyl)-2′-((1-((1-(1-ethylazetidin-3-yl)-1H-pyrazol-4-yl)sulfonyl)piperidin-4-yl)amino)spiro[cyclopropane-1,5′-pyrrolo[2,3-d]pyrimidin]-6′(7′H)-one] here?
**A.** Its IC50 is ≤ 50 nM.

**Q.** How did the IC50 turn out when O=C1N(C2CCCC2)c2nc(NC3CCN(S(=O)(=O)c4cccnc4)CC3)ncc2C12CC2 [Example 5, 7′-Cyclopentyl-2′-((1-(pyridin-3-ylsulfonyl)piperidin-4-yl)amino)spiro[cyclopropane-1,5′-pyrrolo[2,3-d]pyrimidin]-6′(7′H)-one] was run?
**A.** Its IC50 is ≤ 50 nM.

**Q.** How did the IC50 turn out when CCn1cnc(S(=O)(=O)N2CCC(Nc3ncc4c(n3)N(c3cc(F)ccc3Cl)C(=O)C43CC3)CC2)c1 [Example 19, 7′-(2-chloro-5-fluorophenyl)-2′-((1-((1-ethyl-1H-imidazol-4-yl)sulfonyl)piperidin-4-yl)amino)spiro[cyclopropane-1,5′-pyrrolo[2,3-d]pyrimidin]-6′(7′H)-one] was run?
**A.** Its IC50 is ≤ 50 nM.

**Q.** Which IC50 does the source give for C[C@@H](C1CC1)N1C(=O)C2(CC2)c2cnc(NC3CCN(S(=O)(=O)c4ncc[nH]4)CC3)nc21 [Example 14, (S)-2′-((1-((1H-imidazol-2-yl)sulfonyl)piperidin-4-yl)amino)-7′-(1-cyclopropylethyl)spiro[cyclopropane-1,5′-pyrrolo[2,3-d]pyrimidin]-6′(7′H)-one] here?
**A.** Its IC50 is ≤ 50 nM.

**Q.** How did the IC50 turn out when C[C@@]1(O)CCC[C@H]1N1C(=O)C2(CC2)c2cnc(NC3CCN(S(=O)(=O)c4ncc[nH]4)CC3)nc21 (relative stereo) [Example 17, 2′-((1-((1H-imidazol-2-yl)sulfonyl)piperidin-4-yl)amino)-7′-((trans)-2-hydroxy-2-methylcyclopentyl)spiro[cyclopropane-1,5′-pyrrolo[2,3-d]pyrimidin]-6′(7′H)-one] was run?
**A.** The IC50 was ≤ 50 nM.

**Q.** How did the IC50 turn out when CCC(C(F)F)N1C(=O)C2(CC2)c2cnc(NC3CCN(S(C)(=O)=O)CC3)nc21 (racemic) [Example 10, 7′-(1,1-difluorobutan-2-yl)-2′-((1-(methylsulfonyl)piperidin-4-yl)amino)spiro[cyclopropane-1,5′-pyrrolo[2,3-d]pyrimidin]-6′(7′H)-one] was run?
**A.** The IC50 was ≤ 50 nM.

**Q.** Which IC50 does the source give for O=C1N(C2CCCC2)c2nc(NC3CCN(S(=O)(=O)C4CC4)CC3)ncc2C12CC2 [Example 3, 7′-Cyclopentyl-2′-((1-(cyclopropylsulfonyl)piperidin-4-yl)amino)spiro[cyclopropane-1,5′-pyrrolo[2,3-d]pyrimidin]-6′(7′H)-one] here?
**A.** The IC50 was ≤ 50 nM.
